In brackets after ≈: the same amount, converted by molar mass.
Legend:
[1] = tested on: Mycobacterium tuberculosis; assay: Antimycobacterial activity against Mycobacterium tuberculosis assessed as inhibition of bacterial growth; assay type: functional; settings: read-out: MIC100
Pseudomonas aeruginosa = assay: Inhibition of N-terminal His-tagged Pseudomonas aeruginosa RmIA expressed in Escherichia coli BL21 (lambdaDE3) at 10 uM using dTTP and G-1-P as substrates incubated for 30 mins by Biomol green reagent based assay relative to control
[2] = Inhibition of N-terminal His-tagged Pseudomonas aeruginosa RmIA expressed in Escherichia coli BL21 (lambdaDE3) using dTTP and G-1-P as substrates incubated for 30 mins by Biomol green reagent based assay

Row | Compound | inhibition (Pseudomonas aeruginosa) | also measured
1 | CN(c1c(N)n(Cc2ccccc2)c(=O)[nH]c1=O)S(=O)(=O)c1ccccc1 |  | MIC [1]: 100 mg/L (≈ 259 µM)
2 | CN(c1c(NCCCn2cc(CN)nn2)n(Cc2ccccc2)c(=O)[nH]c1=O)S(=O)(=O)c1ccccc1 | 100% | 
3 | CN(c1c(NCCCCN)n(Cc2ccc(Br)cc2)c(=O)[nH]c1=O)S(=O)(=O)c1ccccc1 | 100% | 
4 | CNCCNc1c(N(C)S(=O)(=O)c2ccccc2)c(=O)[nH]c(=O)n1Cc1ccc(Br)cc1 |  | IC50 [2]: 0.096 µM
5 | CN(c1c(N)n(Cc2ccc(Br)cc2)c(=O)[nH]c1=O)S(=O)(=O)c1ccccc1 | 100% | 
6 | CN(c1c(NCCCCCN)n(Cc2ccc(Br)cc2)c(=O)[nH]c1=O)S(=O)(=O)c1ccccc1 | 100% | 
7 | CNCCCNc1c(N(C)S(=O)(=O)c2ccccc2)c(=O)[nH]c(=O)n1Cc1ccc(Br)cc1 | 100% | 

Source: ChEMBL document CHEMBL5053537, “Next generation Glucose-1-phosphate thymidylyltransferase (RmlA) inhibitors: An extended SAR study to direct future design” (Bioorg Med Chem, 2021)
